Assay results published in ChEMBL document CHEMBL4118194, “Molecular modeling, synthesis, antibacterial and cytotoxicity evaluation of sulfonamide derivatives of benzimidazole, indazole, benzothiazole and thiazole” (Bioorg Med Chem, 2018).
Values after ≈ are worked out from the molar mass of the structure shown.

What was measured:
Vero = assay: Cytotoxicity against African green monkey Vero cells assessed as decrease in cell viability after 3 days by MTT assay; format: cell-based; details: Chlorocebus sabaeus, 72 h
PBMC = assay: Cytotoxicity against human PBMC assessed as decrease in cell viability after 5 days by MTT assay; format: cell-based; details: 120 h
Pseudomonas aeruginosa [1] = assay: Synergistic antibacterial activity against Pseudomonas aeruginosa NCIM 2036 at 0.37 to 50 ug/ml after 24 hrs in presence of […] sulfamethoxazole by broth micro dilution method; format: functional; details: NCIM 2036, 24 h
Escherichia coli [2] = assay: Synergistic antibacterial activity against wild type Escherichia coli NCIM 2065 assessed as fractional inhibitory concentration at 0.5 times MIC after 24 hrs in presence of 0.0976 to […] chloramphenicol by broth micro dilution method; format: functional
Escherichia coli [3] = assay: Potency index, ratio of sulfamethoxazole MIC to compound MIC for Escherichia coli U-621 mutant; format: functional
Pseudomonas aeruginosa [4] = assay: Synergistic antibacterial activity against Pseudomonas aeruginosa NCIM 2036 assessed as fractional inhibitory concentration at 0.37 to 50 ug/ml after 24 hrs in presence of […] sulfamethoxazole by broth micro dilution method; format: functional
CCRF-CEM = assay: Cytotoxicity against human CEM cells assessed as decrease in cell viability after 5 days by MTT assay; format: cell-based; details: 120 h
Escherichia coli [5] = assay: Potency index, ratio of […] MIC to compound MIC for Escherichia coli U-621 mutant; format: functional
Escherichia coli [6] = assay: Antibacterial activity against Escherichia coli U-621 mutant after 24 hrs by broth micro dilution method; format: functional; details: U-621, 24 h
Escherichia coli [7] = assay: Synergistic antibacterial activity against wild type Escherichia coli NCIM 2065 assessed as fractional inhibitory concentration at 0.5 times MIC after 24 hrs in presence of 0.0976 to […] sulfamethoxazole by broth micro dilution method; format: functional
Escherichia coli [8] = assay: Antibacterial activity against wild type Escherichia coli NCIM 2065 after 24 hrs by broth micro dilution method; format: functional; details: NCIM 2065, 24 h
Bacillus cereus [9] = assay: Antibacterial activity against Bacillus cereus NCIM 2156 after 24 hrs by broth micro dilution method; format: functional; details: NCIM 2156, 24 h
Pseudomonas aeruginosa [10] = assay: Antibacterial activity against Pseudomonas aeruginosa NCIM 2036 after 24 hrs by broth micro dilution method; format: functional; details: NCIM 2036, 24 h
Pseudomonas aeruginosa [11] = assay: Synergistic antibacterial activity against Pseudomonas aeruginosa NCIM 2036 at 0.5 times MIC after 24 hrs in presence of 0.0976 to […] chloramphenicol by broth micro dilution method relative to compound alone; format: functional
Pseudomonas aeruginosa [12] = assay: Synergistic antibacterial activity against Pseudomonas aeruginosa NCIM 2036 at 0.5 times MIC after 24 hrs in presence of 0.0976 to […] chloramphenicol by broth micro dilution method; format: functional; details: NCIM 2036, 24 h
Escherichia coli [13] = assay: Synergistic antibacterial activity against wild type Escherichia coli NCIM 2065 at 0.5 times MIC after 24 hrs in presence of 0.0976 to […] chloramphenicol by broth micro dilution method; format: functional; details: NCIM 2065, 24 h
Pseudomonas aeruginosa [14] = assay: Synergistic antibacterial activity against Pseudomonas aeruginosa NCIM 2036 assessed as fractional inhibitory concentration at 0.5 times MIC after 24 hrs in presence of 0.0976 to […] chloramphenicol by broth micro dilution method; format: functional
Escherichia coli [15] = assay: Synergistic antibacterial activity against wild type Escherichia coli NCIM 2065 at 0.5 times MIC after 24 hrs in presence of 0.0976 to […] sulfamethoxazole by broth micro dilution method; format: functional; details: NCIM 2065, 24 h
Staphylococcus aureus [16] = assay: Antibacterial activity against Staphylococcus aureus NCIM 2079 after 24 hrs by broth micro dilution method; format: functional; details: NCIM 2079, 24 h
Staphylococcus aureus [17] = assay: Synergistic antibacterial activity against Staphylococcus aureus NCIM 2079 at 0.37 to 50 ug/ml after 24 hrs in presence of […] chloramphenicol by broth micro dilution method; format: functional; details: NCIM 2079, 24 h
Bacillus cereus [18] = assay: Synergistic antibacterial activity against Bacillus cereus NCIM 2156 assessed as fractional inhibitory concentration at 0.37 to 50 ug/ml after 24 hrs in presence of […] sulfamethoxazole by broth micro dilution method; format: functional
Bacillus cereus [19] = assay: Synergistic antibacterial activity against Bacillus cereus NCIM 2156 assessed as fractional inhibitory concentration at 0.37 to 50 ug/ml after 24 hrs in presence of […] chloramphenicol by broth micro dilution method; format: functional
Staphylococcus aureus [20] = assay: Synergistic antibacterial activity against Staphylococcus aureus NCIM 2079 assessed as fractional inhibitory concentration at 0.37 to 50 ug/ml after 24 hrs in presence of […] sulfamethoxazole by broth micro dilution method; format: functional
Bacillus cereus [21] = assay: Synergistic antibacterial activity against Bacillus cereus NCIM 2156 at 0.37 to 50 ug/ml after 24 hrs in presence of […] chloramphenicol by broth micro dilution method; format: functional; details: NCIM 2156, 24 h
Staphylococcus aureus [22] = assay: Synergistic antibacterial activity against Staphylococcus aureus NCIM 2079 at 0.37 to 50 ug/ml after 24 hrs in presence of […] sulfamethoxazole by broth micro dilution method; format: functional; details: NCIM 2079, 24 h
Pseudomonas aeruginosa [23] = assay: Synergistic antibacterial activity against Pseudomonas aeruginosa NCIM 2036 at 0.37 to 50 ug/ml after 24 hrs in presence of […] chloramphenicol by broth micro dilution method; format: functional; details: NCIM 2036, 24 h
Escherichia coli [24] = assay: Potency index, ratio of chloramphenicol MIC to compound MIC for wild type Escherichia coli NCIM 2065; format: functional
Staphylococcus aureus [25] = assay: Synergistic antibacterial activity against Staphylococcus aureus NCIM 2079 assessed as fractional inhibitory concentration at 0.37 to 50 ug/ml after 24 hrs in presence of […] chloramphenicol by broth micro dilution method; format: functional
Bacillus cereus [26] = assay: Synergistic antibacterial activity against Bacillus cereus NCIM 2156 at 0.37 to 50 ug/ml after 24 hrs in presence of […] sulfamethoxazole by broth micro dilution method; format: functional; details: NCIM 2156, 24 h
Pseudomonas aeruginosa [27] = assay: Synergistic antibacterial activity against Pseudomonas aeruginosa NCIM 2036 assessed as fractional inhibitory concentration at 0.37 to 50 ug/ml after 24 hrs in presence of […] chloramphenicol by broth micro dilution method; format: functional
Escherichia coli [28] = assay: Synergistic antibacterial activity against wild type Escherichia coli NCIM 2065 at 0.37 to 50 ug/ml after 24 hrs in presence of […] sulfamethoxazole by broth micro dilution method; format: functional; details: NCIM 2065, 24 h
Escherichia coli [29] = assay: Potency index, ratio of sulfamethoxazole MIC to compound MIC for wild type Escherichia coli NCIM 2065; format: functional
Escherichia coli [30] = assay: Synergistic antibacterial activity against wild type Escherichia coli NCIM 2065 assessed as fractional inhibitory concentration at 0.37 to 50 ug/ml after 24 hrs in presence of […] sulfamethoxazole by broth micro dilution method; format: functional
Pseudomonas aeruginosa [31] = assay: Synergistic antibacterial activity against Pseudomonas aeruginosa NCIM 2036 at 0.5 times MIC after 24 hrs in presence of 0.0976 to […] sulfamethoxazole by broth micro dilution method; format: functional; details: NCIM 2036, 24 h
Pseudomonas aeruginosa [32] = assay: Synergistic antibacterial activity against Pseudomonas aeruginosa NCIM 2036 assessed as fractional inhibitory concentration at 0.5 times MIC after 24 hrs in presence of 0.0976 to […] sulfamethoxazole by broth micro dilution method; format: functional
Pseudomonas aeruginosa [33] = assay: Potency index, ratio of chloramphenicol MIC to compound MIC for Pseudomonas aeruginosa NCIM 2036; format: functional

SMILES	IC50 (Vero) [µM]	IC50 (PBMC) [µM]	MIC (Pseudomonas aeruginosa [1]) [µg/mL]	FIC (Escherichia coli [2])	FIC (Pseudomonas aeruginosa [4])	IC50 (CCRF-CEM) [µM]	MIC (Escherichia coli [6]) [µg/mL]	FIC (Escherichia coli [7])	MIC (Escherichia coli [8]) [µg/mL]	MIC (Bacillus cereus [9]) [µg/mL]	MIC (Pseudomonas aeruginosa [10]) [µg/mL]	MIC (Escherichia coli [13]) [µg/mL]	MIC (Escherichia coli [15]) [µg/mL]	MIC (Staphylococcus aureus [16]) [µg/mL]	other results
O=S(=O)(Nc1nccs1)c1ccc(Cl)cc1	6.2	> 100	1.5	0.06	0.24	> 100	25 (≈ 91 µM)	0.06	3.1 (≈ 11.3 µM)	3.1 (≈ 11.3 µM)	6.2 (≈ 22.6 µM)	0.195	0.195	6.2 (≈ 22.6 µM)	Ratio (Escherichia coli [3]): 4; Ratio (Escherichia coli [5]): 4; fold change (FC) (Pseudomonas aeruginosa [11]): 32; MIC (Pseudomonas aeruginosa [12]): 0.195 µg/mL; FIC (Pseudomonas aeruginosa [14]): 0.03
O=S(=O)(c1ccc(Cl)cc1)n1cnc2ccccc21	> 100	> 100	3.1	0.12	0.24	> 61.7	50 (≈ 171 µM)	0.03	3.1 (≈ 10.6 µM)	25 (≈ 85.4 µM)	12.5 (≈ 42.7 µM)	0.391	0.0976	12.5 (≈ 42.7 µM)	MIC (Staphylococcus aureus [17]): 3.1 µg/mL; FIC (Bacillus cereus [18]): 0.24; FIC (Bacillus cereus [19]): 0.24; FIC (Staphylococcus aureus [20]): 0.12; MIC (Bacillus cereus [21]): 6.2 µg/mL; MIC (Staphylococcus aureus [22]): 3.1 µg/mL; MIC (Pseudomonas aeruginosa [23]): 3.1 µg/mL; Ratio (Escherichia coli [24]): 2; FIC (Staphylococcus aureus [25]): 0.24; MIC (Bacillus cereus [26]): 6.2 µg/mL; FIC (Pseudomonas aeruginosa [27]): 0.24
Cc1ccc(S(=O)(=O)n2cnc3ccccc32)cc1	> 100	> 100	6.2	0.12	0.24	≥ 100	50 (≈ 184 µM)	–	6.2 (≈ 22.8 µM)	50 (≈ 184 µM)	25 (≈ 91.8 µM)	0.781	–	25 (≈ 91.8 µM)	MIC (Staphylococcus aureus [17]): 12.5 µg/mL; FIC (Bacillus cereus [18]): 0.24; MIC (Escherichia coli [28]): 3.1 µg/mL; FIC (Bacillus cereus [19]): 0.25; Ratio (Escherichia coli [29]): 2; FIC (Escherichia coli [30]): 0.5; FIC (Staphylococcus aureus [20]): 0.49; MIC (Bacillus cereus [21]): 12.5 µg/mL; MIC (Staphylococcus aureus [22]): 6.2 µg/mL; MIC (Pseudomonas aeruginosa [23]): 6.2 µg/mL; FIC (Staphylococcus aureus [25]): 0.5; MIC (Bacillus cereus [26]): 6.2 µg/mL; FIC (Pseudomonas aeruginosa [27]): 0.24
C[C@@H]1C[C@@H]([C@H](O)CC2CC(=O)NC(=O)C2)C(=O)[C@@H](C)C1 [CYCLOHEXIMIDE]	0.2	0.9	–	–	–	0.2	50 (≈ 178 µM)	–	12.5 (≈ 44.4 µM)	12.5 (≈ 44.4 µM)	12.5 (≈ 44.4 µM)	–	–	12.5 (≈ 44.4 µM)	–
O=[N+]([O-])c1ccc(S(=O)(=O)n2ncc3cc([N+](=O)[O-])ccc32)cc1	–	–	–	0.06	–	–	12.5 (≈ 35.9 µM)	0.03	3.1 (≈ 8.9 µM)	6.2 (≈ 17.8 µM)	3.1 (≈ 8.9 µM)	0.195	0.0976	6.2 (≈ 17.8 µM)	Ratio (Escherichia coli [3]): 4; MIC (Pseudomonas aeruginosa [31]): 0.195 µg/mL; FIC (Pseudomonas aeruginosa [32]): 0.06; Ratio (Escherichia coli [5]): 4; Ratio (Pseudomonas aeruginosa [33]): 2; Ratio (Escherichia coli [24]): 2; MIC (Pseudomonas aeruginosa [12]): 0.195 µg/mL; FIC (Pseudomonas aeruginosa [14]): 0.06
O=C(N[C@H](CO)[C@H](O)c1ccc([N+](=O)[O-])cc1)C(Cl)Cl [CHLORAMPHENICOL]	–	–	–	–	–	–	50 (≈ 155 µM)	–	6.2 (≈ 19.2 µM)	6.2 (≈ 19.2 µM)	6.2 (≈ 19.2 µM)	–	–	6.2 (≈ 19.2 µM)	–
Cc1cc(NS(=O)(=O)c2ccc(N)cc2)no1 [SULFAMETHOXAZOLE]	–	–	–	–	–	–	25 (≈ 98.7 µM)	–	3.1 (≈ 12.2 µM)	6.2 (≈ 24.5 µM)	3.1 (≈ 12.2 µM)	–	–	6.2 (≈ 24.5 µM)	–
